Measurements reported in ChEMBL document CHEMBL6103556, “Design and evaluation of anaplastic lymphoma kinase degraders using a covalent fumarate handle” (Bioorg Med Chem Lett, 2025).
pIC50: −log10 of the molar value.

Columns and labels:
NCI-H3122 [1] = experiment: Induction of EML4-ALK degradation in human NCI-H3122 cells assessed as reduction in ALK level by measuring fold change at 100 nM measured after 24 hrs by Western blot analysis (reference value: […]); assay type: cell-based
NCI-H3122 [2] = experiment: cells; details: Homo sapiens, NCI-H3122, 72 h
Description: Antiproliferative activity against human NCI-H3122 cells expressing EML4-ALK fusion assessed as cell growth inhibition incubated for 72 hrs by CellTiter-Glo assay

[3] = molecular target: Insulin receptor (Homo sapiens) (UniProt P06213); experiment: Inhibition of IR (unknown origin) at 1 uM by Eurofins kinase profiler method relative to control
[4] = molecular target: Insulin-like growth factor 1 receptor (Homo sapiens) (UniProt P08069); experiment: Inhibition of IGF-1R (unknown origin) at 1 uM by Eurofins kinase profiler method relative to control
NCI-H3122 [5] = experiment: Antiproliferative activity against human NCI-H3122 cells transfected with siRNF126 assessed as cell growth inhibition measured after 72 hrs by CellTiter-Glo assay; assay type: functional
[6] = molecular target: T1, Proto-oncogene tyrosine-protein kinase ROS (Homo sapiens, UniProt P08922); experiment: Inhibition of ROS (unknown origin) at 1 uM by Eurofins kinase profiler method relative to control
[7] = molecular target: Epidermal growth factor receptor (Homo sapiens, UniProt P00533, L858R); experiment: Inhibition of EGFR L858R (unknown origin) by Eurofins kinase profiler method
[8] = tested on: Epidermal growth factor receptor (Homo sapiens), P00533 [L858R]; experiment: Inhibition of EGFR L858R (unknown origin) at 1 uM by Eurofins kinase profiler method relative to control
[9] = molecular target: T1, Proto-oncogene tyrosine-protein kinase ROS; experiment: Inhibition of ROS (unknown origin) by Eurofins kinase profiler method

T1 sequence (P08922 whole entry): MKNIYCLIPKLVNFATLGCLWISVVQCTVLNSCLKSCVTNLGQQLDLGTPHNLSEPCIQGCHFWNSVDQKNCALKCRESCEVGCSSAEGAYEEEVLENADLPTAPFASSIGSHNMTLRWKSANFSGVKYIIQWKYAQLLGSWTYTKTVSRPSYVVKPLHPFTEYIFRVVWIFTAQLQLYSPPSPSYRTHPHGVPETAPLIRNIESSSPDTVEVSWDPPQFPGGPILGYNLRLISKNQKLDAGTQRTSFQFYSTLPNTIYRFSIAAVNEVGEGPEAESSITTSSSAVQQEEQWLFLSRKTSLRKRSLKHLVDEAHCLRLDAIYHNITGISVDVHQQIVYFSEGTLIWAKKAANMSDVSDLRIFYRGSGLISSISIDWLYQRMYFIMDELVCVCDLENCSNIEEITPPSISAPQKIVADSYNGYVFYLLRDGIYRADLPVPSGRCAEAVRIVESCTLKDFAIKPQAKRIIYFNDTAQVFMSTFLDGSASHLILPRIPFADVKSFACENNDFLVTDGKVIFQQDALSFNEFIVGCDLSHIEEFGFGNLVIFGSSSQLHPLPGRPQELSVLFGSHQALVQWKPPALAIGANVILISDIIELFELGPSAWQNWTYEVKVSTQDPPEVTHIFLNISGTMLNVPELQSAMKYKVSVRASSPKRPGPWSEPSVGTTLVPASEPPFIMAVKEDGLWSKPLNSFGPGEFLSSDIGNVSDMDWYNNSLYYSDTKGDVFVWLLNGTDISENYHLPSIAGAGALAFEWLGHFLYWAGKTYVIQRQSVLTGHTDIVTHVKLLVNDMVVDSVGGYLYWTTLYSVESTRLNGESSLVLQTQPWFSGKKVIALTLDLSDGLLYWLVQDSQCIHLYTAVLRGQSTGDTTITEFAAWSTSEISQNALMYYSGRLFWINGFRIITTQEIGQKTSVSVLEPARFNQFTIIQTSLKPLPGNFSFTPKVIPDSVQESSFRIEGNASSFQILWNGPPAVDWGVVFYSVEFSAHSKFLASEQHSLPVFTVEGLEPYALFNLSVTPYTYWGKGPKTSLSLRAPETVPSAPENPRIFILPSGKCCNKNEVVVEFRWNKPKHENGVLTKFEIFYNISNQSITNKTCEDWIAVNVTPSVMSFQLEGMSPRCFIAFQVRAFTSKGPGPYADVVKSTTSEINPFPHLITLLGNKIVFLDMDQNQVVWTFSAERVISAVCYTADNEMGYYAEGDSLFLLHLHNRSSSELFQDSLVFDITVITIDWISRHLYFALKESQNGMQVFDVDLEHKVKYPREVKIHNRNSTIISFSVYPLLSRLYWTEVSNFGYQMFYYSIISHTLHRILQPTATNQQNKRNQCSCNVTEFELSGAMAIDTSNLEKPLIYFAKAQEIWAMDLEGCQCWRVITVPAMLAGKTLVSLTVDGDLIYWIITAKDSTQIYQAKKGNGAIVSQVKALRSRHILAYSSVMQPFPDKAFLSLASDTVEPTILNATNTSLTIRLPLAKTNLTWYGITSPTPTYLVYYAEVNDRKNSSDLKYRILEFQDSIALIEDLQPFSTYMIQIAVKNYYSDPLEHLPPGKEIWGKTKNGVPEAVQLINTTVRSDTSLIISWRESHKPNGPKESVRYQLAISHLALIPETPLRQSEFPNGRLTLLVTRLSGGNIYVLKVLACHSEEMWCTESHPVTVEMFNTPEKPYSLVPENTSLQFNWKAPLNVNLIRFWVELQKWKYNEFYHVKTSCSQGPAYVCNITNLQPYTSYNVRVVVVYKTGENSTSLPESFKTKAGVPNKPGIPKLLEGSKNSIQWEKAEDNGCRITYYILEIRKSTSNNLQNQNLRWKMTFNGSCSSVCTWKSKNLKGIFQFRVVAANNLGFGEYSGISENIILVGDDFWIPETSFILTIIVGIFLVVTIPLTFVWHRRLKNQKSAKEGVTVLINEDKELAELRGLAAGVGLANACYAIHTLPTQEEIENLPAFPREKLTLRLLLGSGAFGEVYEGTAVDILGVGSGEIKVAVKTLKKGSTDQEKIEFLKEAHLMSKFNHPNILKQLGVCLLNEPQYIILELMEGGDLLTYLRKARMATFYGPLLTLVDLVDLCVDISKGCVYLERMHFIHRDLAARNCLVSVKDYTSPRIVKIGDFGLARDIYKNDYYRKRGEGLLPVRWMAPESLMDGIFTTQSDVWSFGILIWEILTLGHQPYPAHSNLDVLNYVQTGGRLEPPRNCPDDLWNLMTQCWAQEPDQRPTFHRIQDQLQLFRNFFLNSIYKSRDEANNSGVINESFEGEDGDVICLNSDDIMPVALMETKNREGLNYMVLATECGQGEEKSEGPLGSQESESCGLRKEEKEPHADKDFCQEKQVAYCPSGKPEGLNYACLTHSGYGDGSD
Sequence of Epidermal growth factor receptor (P00533 25-1210 L858R limits assumed): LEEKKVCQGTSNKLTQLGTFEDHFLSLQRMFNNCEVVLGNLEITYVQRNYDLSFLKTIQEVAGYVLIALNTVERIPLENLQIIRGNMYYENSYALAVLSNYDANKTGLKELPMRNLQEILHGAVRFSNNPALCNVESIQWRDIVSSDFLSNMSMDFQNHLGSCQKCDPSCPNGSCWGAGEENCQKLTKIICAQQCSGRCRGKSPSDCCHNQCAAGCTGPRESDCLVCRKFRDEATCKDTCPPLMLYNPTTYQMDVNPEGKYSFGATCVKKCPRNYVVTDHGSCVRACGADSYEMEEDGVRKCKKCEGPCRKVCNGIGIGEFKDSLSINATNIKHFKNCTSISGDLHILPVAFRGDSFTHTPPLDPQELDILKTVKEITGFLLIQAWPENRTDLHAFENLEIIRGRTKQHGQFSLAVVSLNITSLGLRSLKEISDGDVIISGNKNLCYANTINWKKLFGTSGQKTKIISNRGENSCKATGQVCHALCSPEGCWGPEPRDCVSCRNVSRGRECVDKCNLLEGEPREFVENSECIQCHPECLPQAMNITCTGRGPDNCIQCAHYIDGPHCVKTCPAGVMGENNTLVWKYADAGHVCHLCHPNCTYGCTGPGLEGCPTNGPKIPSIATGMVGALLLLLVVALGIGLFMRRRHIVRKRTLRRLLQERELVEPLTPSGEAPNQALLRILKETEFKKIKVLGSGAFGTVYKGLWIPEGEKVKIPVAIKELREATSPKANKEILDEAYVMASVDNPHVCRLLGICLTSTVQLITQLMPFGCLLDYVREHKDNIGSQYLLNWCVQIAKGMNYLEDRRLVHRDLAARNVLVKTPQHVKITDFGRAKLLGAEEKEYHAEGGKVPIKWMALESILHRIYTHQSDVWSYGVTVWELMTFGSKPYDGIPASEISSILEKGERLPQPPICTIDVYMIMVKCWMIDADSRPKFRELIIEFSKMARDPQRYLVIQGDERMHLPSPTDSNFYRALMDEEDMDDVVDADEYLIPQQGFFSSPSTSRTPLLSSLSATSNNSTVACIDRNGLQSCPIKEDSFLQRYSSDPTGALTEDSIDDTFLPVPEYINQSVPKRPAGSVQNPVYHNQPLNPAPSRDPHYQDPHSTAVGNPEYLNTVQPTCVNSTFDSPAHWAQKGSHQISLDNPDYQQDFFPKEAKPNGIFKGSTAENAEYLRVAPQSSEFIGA
Sequence of Epidermal growth factor receptor (Homo sapiens), P00533 [L858R] (P00533 whole entry L858R): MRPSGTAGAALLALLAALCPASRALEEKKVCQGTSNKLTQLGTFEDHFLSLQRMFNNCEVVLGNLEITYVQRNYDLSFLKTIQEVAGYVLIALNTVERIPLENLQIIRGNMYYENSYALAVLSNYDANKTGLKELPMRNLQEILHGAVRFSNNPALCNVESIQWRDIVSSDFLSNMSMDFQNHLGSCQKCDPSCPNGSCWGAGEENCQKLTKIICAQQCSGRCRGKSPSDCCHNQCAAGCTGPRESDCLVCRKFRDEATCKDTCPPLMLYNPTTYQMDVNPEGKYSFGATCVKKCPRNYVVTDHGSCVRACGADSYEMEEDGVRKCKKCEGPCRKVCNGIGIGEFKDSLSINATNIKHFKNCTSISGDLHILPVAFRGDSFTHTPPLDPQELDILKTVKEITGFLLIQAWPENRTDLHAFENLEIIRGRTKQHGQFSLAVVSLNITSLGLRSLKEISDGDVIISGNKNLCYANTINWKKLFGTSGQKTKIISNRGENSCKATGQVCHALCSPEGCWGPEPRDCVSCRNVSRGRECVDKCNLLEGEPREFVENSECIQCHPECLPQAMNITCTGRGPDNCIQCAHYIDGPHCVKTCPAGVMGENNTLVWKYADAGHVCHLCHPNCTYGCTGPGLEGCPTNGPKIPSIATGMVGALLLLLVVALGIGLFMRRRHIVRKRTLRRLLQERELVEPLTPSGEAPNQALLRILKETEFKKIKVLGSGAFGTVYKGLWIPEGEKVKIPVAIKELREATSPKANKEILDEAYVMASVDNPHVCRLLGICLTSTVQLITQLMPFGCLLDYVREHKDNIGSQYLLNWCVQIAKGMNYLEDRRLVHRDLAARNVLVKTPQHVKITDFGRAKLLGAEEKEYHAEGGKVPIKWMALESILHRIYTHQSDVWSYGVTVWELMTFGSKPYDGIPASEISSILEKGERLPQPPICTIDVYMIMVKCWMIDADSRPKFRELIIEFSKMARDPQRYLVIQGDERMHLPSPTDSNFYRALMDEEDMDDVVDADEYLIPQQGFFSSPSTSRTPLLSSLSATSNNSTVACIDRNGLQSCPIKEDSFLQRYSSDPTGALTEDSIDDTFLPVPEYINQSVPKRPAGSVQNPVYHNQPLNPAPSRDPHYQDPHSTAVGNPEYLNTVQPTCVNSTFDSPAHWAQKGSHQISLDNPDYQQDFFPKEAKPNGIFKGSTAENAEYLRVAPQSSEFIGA

Compound | GI50 (NCI-H3122 [2]) [nM] | also measured
CC(C)C[C@H](NC(=O)[C@H](Cc1ccccc1)NC(=O)c1cnccn1)B(O)O |  | fold change (FC) (NCI-H3122 [1]): 1
CCc1cc2c(cc1N1CCC(N3CCN(C(=O)/C=C/C(=O)c4ccc(OC)cc4)CC3)CC1)C(C)(C)c1[nH]c3cc(C#N)ccc3c1C2=O | 88 | 
COc1ccc(C(=O)CCC(=O)N2CCC(n3cc(-c4cnc(N)c(O[C@H](C)c5c(Cl)ccc(F)c5Cl)c4)cn3)CC2)cc1 | 1100 | 
COc1ccc(C(=O)/C=C/C(=O)N2CCN(C3CCN(c4ccc(Nc5ncc(Cl)c(Nc6ccccc6P(C)(C)=O)n5)c(OC)c4)CC3)CC2)cc1 | 2 | inhibition [3]: 48%; inhibition [4]: 44%; GI50 (NCI-H3122 [5]): 2 nM; inhibition [6]: 73%; pIC50 [7]: 7.01; inhibition [8]: 82%; pIC50 [9]: 6.73
COc1ccc(C(=O)CCC(=O)N2CCN(C3CCN(c4ccc(Nc5ncc(Cl)c(Nc6ccccc6P(C)(C)=O)n5)c(OC)c4)CC3)CC2)cc1 | 66 | GI50 (NCI-H3122 [5]): 111 nM
Cc1cc(Nc2ncc(Cl)c(Nc3ccccc3S(=O)(=O)C(C)C)n2)c(OC(C)C)cc1C1CCNCC1 [CERITINIB] | 23 | 
COc1ccc(C(=O)/C=C/C(=O)N2CCC(c3cc(OC(C)C)c(Nc4ncc(Cl)c(Nc5ccccc5S(=O)(=O)C(C)C)n4)cc3C)CC2)cc1 | 209 | 
COc1ccc(C(=O)/C=C/C(=O)N2CCC(n3cc(-c4cnc(N)c(O[C@H](C)c5c(Cl)ccc(F)c5Cl)c4)cn3)CC2)cc1 | 56 | 
CCc1cc2c(cc1N1CCC(N3CCN(C(=O)CCC(=O)c4ccc(OC)cc4)CC3)CC1)C(C)(C)c1[nH]c3cc(C#N)ccc3c1C2=O | > 5000 | 
COc1ccc(C(=O)CCC(=O)N2CCC(c3cc(OC(C)C)c(Nc4ncc(Cl)c(Nc5ccccc5S(=O)(=O)C(C)C)n4)cc3C)CC2)cc1 | 747 | 
CCc1cc2c(cc1N1CCC(N3CCOCC3)CC1)C(C)(C)c1[nH]c3cc(C#N)ccc3c1C2=O [ALECTINIB] | 23 | 
COc1cc(N2CCC(N3CCN(C)CC3)CC2)ccc1Nc1ncc(Cl)c(Nc2ccccc2P(C)(C)=O)n1 [BRIGATINIB] | 35 | GI50 (NCI-H3122 [5]): 43 nM
